Measured values: US20260240842A1, “METHODS TO PREVENT THERAPY RESISTANCE IN MELANOMA VIA BLOCKING GENOMIC INSTABILITY” (THE REGENTS OF THE UNIVERSITY OF CALIFORNIA, priority 2022, published 2026)

Tested on: human BRAF^V600MUT (M229, M249, M395) or NRAS^Q61MUT (M202, M207, M245) melanoma cell lines
Test: Long-term clonogenic growth: emergence of acquired MAPKi-resistant colonies (DTPPs) in parental melanoma cell lines under MAPKi
Assay type: cell-based
Settings: for efficacy of co-treatment during the second half of the MAPKi treatment course: M229 (day 14-28) and M245 (day 15-30); for suppression of resistance with delayed co-treatment: M229 and M245, 3- to 3.5-week delay in co-treatment, FIGS. 4R and 4S; for sensitivity of M249 parental cell line to resistance suppression: M249, FIG. 4D; for prevention of DTPP formation / suppression of acquired MAPKi resistance: in combination with MAPKi (BRAFi+MEKi or MEKi), parental cell lines, FIG. 4
Procedure: FIGS. 4A-4U. DNA-PKi and/or PARPi co-treatment prevents acquired MAPKi-resistance in human melanoma cell lines. FIGS. 4A to 4O: Long-term clonogenic growth of isogenic parental and acquired MAPKi-resistant BRAF^V600MUT (4A to 4H) or NRAS^Q61MUT (4I to 4O) human melanoma cell lines showing acquired-resistant colonies to BRAFi+MEKi (PLX4032 at 0.5 mM, AZD6244 at 0.5 mM in 4A and 4G; PLX4032 at 0.25 mM, AZD6244 at 0.25 mM in 4D; PLX4032 at 1 mM, AZD6244 at 1 mM in 4B, 4C, 4E, 4F and 4H) or MEKi (trametinib at 0.005 mM in I and 0.01 mM in 4J and 4N; trametinib at 0.1 mM in 4K, 4M and 4O) and their suppression by indicated co-treatments with DNA-PKi (NU7026) and/or PARPi (ABT888) at indicated concentrations. Top, representative cultures; bottom, quantifications over n=4 fields (mean±SD). Data representative of 2 to 4 independent repeats. Seeding densities (cells/well in 6-well dishes) and culture durations (days): (4A) 5,000; 31, (4B) 1,000; 17, (4C) 5,000; 18, (4D) 40,000; 40, (4E) 5,000; 14, (4F) 5,000; 12, (4G) 20,000; 30, (4H) 20,000; 21, (4I) 40,000; 30, (4J) 50,000; 31, (4K) 5,000; 17, (4L) 5,000; 22, (4M) 5,000; 16, (4N) 20.000; 16, and (4O) 5,000; 16. Data representative of 2 to 4 independent repeats. FIGS. 4P and 4Q: Western blot, MTT assay (upper), and clonogenic growth assay (lower) of M245 cells transduced by lentivirus harboring shVector control or shRNAs of PRKDC (4P) or LIG4 (4Q). TUBULIN, loading control. Clonogenic growth with vehicle (14 days, 5,000 cells/well in 6-well dishes) or MEKi (29 days, 50,000 cells/well in 6-well dishes) treatments. MEKi, trametinib at 0.01 μM. Representative results of two independent experiments; quantification of n=4 fields (mean±SD). FIGS. 4R and 4S: As in 4A and 4J, respectively, except DNA-PKi and/or PARPi co-treatments were performed in M229 (4R) and M245 (4S) at a later stage of MAPKi treatment (see timepoint schema). Inhibitor concentrations for M229: BRAFi+MEKi (PLX4032 at 0.5 μM, AZD6244 at 0.5 μM), NU7026 (8 μM), ABT888 (4 μM) and NU7026+ABT888 (4 μM+4 μM). Inhibitor concentrations for M245: MEKi (trametinib at 0.01 μM), NU7026 (5 μM), ABT888 (1 μM) and NU7026+ABT888 (5 μM+1 μM). Left, representative cultures; right, quantifications over n=4 fields (mean±SD). Data representative of 2 independent repeats. FIGS. 4T and 4U: As in 4A and 4J, respectively, except DNA-PKi and/or PARPi co-treatments were performed in M229 (4T) and M245 cells (4U) at the same concentrations in R and S for the entire durations (day 1-28 in 4T; day 1-30 in 4U), the first half (day 1-14 in T; day 1-15 in 4U) or the second half (day 14-28 in 4T: day 15-30 in 4U) of the total treatment course. Top, representative cultures; bottom, quantifications over n=4 fields (mean±SD). Data representative of 2 independent repeats. P values (one-way ANOVA followed by Tukey's multiple comparison test) comparing indicated cultures versus MAPKi-only cultures (4A to 4O and 4R to 4U) or shVector culture (4P and 4Q): *, p<0.05; **, p<0.01: ***, p<0.001.
FIGS. 12A-12F. DNA-PKi and/or PARPi co-treatment prevents acquired MAPKi-resistance in human melanoma cell lines. FIGS. 12A to 12F: Long-term clonogenic growth of BRAF^V600MUT (12A, 12C and 12E) or NRAS^Q61MUT (12B, 12D and 12F) cell lines showing acquired-resistant colonies to BRAFi+MEKi (PLX4032 at 0.5 mM, AZD6244 at 0.5 mM for M229 and M395; PLX4032 at 0.25 mM, AZD6244 at 0.25 mM for M249) or MEKi (trametinib at 0.005 mM for M202 and 0.01 mM for M207 and M245) and their suppression by indicated co-treatments with DNA-PKi (VX984 in 12A and 12B; AZD7648 in 12C and 12D) and/or PARPi (olaparib in 12E and 12F) at indicated concentrations. Top, representative cultures; bottom, quantifications over n=4 fields (mean±SD). Data representative of 2 independent repeats. Seeding densities (cells/well in 6-well dishes) and culture durations (days): M202 (40,000, 30), M207 (20,000, 16), M229 (5,000, 32), M245 (50,000, 31), M249 (40,000, 40), and M395 (20,000, 30). […]

Row | Structure (SMILES) | efficacy of co-treatment during the second half of the MAPKi treatment course (FIGS. 4T and 4U) | suppression of resistance with delayed co-treatment | sensitivity of M249 parental cell line to resistance suppression | prevention of DTPP formation / suppression of acquired MAPKi resistance | efficacy of co-treatment during the first half of the MAPKi treatment course (M229 (day 1-14) and M245 (day 1-15), FIGS. 4T and 4U) | prevention of DTPP formation / suppression of acquired MAPKi resistance (listed as DNA-PKi)
1 | C[C@]1(c2nc3c(C(N)=O)cccc3[nH]2)CCCN1 [ABT888, veliparib] | completely lost | reduced the suppression of resistance | highly sensitive to resistance suppression | activity in 3 of 6 parental cell lines | – | –
2 | O=c1cc(N2CCOCC2)oc2c1ccc1ccccc12 [NU7026] | partially remititive | reduced the suppression of resistance | highly sensitive to resistance suppression | synergistically and dose-dependently prevented DTPP formation in all parental cell lines tested | remititive | generally more effective than PARPi in preventing acquired resistance
